Reference: US20240261417A1, “SOS1 DEGRADING AGENT AND PREPARATION METHOD THEREFOR AND APPLICATION THEREOF” (SHANGHAI LEADINGTAC PHARMACEUTICAL CO. LTD., priority 2021, published 2024)

Assays:
[1] = tested on: KRAS G12C mutant human non-small cell lung cancer cells NCI-H358; experiment: 3D cell proliferation inhibition assay, NCI-H358; format: cell-based; conditions: Homo sapiens, NCI-H358, 168 h, 7 days, CTG
Protocol: (§1) Inhibition of 3D cell proliferation by the compounds was investigated on KRAS G12C mutant human non-small cell lung cancer cells NCI-H358 (ATCC or Stem Cell Bank, Chinese Academy of Sciences), KRAS G12D mutant human metastatic pancreatic adenocarcinoma cells AsPC-1 (ATCC), KRAS G12V mutant human lung adenocarcinoma cells NCI-H441 (ATCC), and KRAS G13D mutant human colorectal adenocarcinoma epithelial cells DLD-1 (ATCC). The specific procedures were as follows:
(§2) 200 nL of compound solution diluted in a gradient was added to corresponding microwells of a 384-well low-adsorption microwell plate (Corning, 3657) using an Echo sonic pipetting system (Labcyte, Echo 550), so that the final concentration of the test compound in the reaction system was in a range of 20000 nM-0.008 nM. Then 40 μL of cells at a certain density were added to the corresponding microplate. In addition to test wells for the test compounds, both a DMSO control well and a medium control well were set, with the DMSO control well containing DMSO and cells and the medium well containing only medium. After sample loading, the plate cover was applied, and the 384-well low-adsorption microplate was incubated in an incubator at 37° C. with 5% carbon dioxide for 7 days. After 7 days, the microplate was taken out, and 40 μL of CTG reagent (Promega, G9683) was added to each well. The plate was incubated at room temperature for 30 min and read on a microplate reader EnVision using the chemiluminescence program. The inhibition rates of the compounds at each concentration were calculated by the formula for the percentage inhibition of cell proliferation: inhibition rate %=(mean value of DMSO control group−single concentration reading value of compound)/(mean value of DMSO control group−mean value of medium control group)×100, and then nonlinear curve fitting was performed by GraphPad Prism 8 in the logarithmic concentration-inhibition rate to obtain the IC50 values of the compounds.

[2] = tested on: KRAS G12D mutant human metastatic pancreatic adenocarcinoma cells AsPC-1; experiment: 3D cell proliferation inhibition assay, AsPC-1; format: cell-based; conditions: Homo sapiens, ASPC1, 168 h, 7 days, CTG
Protocol: as §1, §2

IC50 [1] [nM]	IC50 [2] [nM]	Compound
≤ 15	15 to 30	COc1cc2nc(C)nc(N[C@H](C)c3cc(N)cc(C(F)(F)F)c3)c2cc1[C@H]1CC[C@H](C(=O)N2CCN(CCC3CCC4(CC3)CCN(C(=O)c3ccc(Cl)c(N5CCC(=O)NC5=O)c3)CC4)CC2)CC1 [Example 1, 1-(5-(9-(2-(4-((1R,4R)-4-(4-(((R)-1-(3-amino-5-(trifluoromethyl)phenyl)ethyl)amino)-7-methoxy-2-methylquinazolin-6-yl)cyclohexane-1-carbonyl)piperazin-1-yl)ethyl)-3-azaspiro[5.5]undecane-3-carbonyl)-2-chlorophenyl)dihydropyrimidine-2,4(1H,3H)-dione]
≤ 15	30 to 50	COc1cc2nc(C)nc(N[C@H](C)c3cccc4c3CCS4(=O)=O)c2cc1[C@H]1CC[C@H](C(=O)N2CCN(CC3CCC4(CC3)CCN(C(=O)c3ccc(Cl)c(N5CCC(=O)NC5=O)c3)CC4)CC2)CC1 [Example 10, 1-(2-chloro-5-(9-((4-((1R,4R)-4-(4-(((R)-1-(1,1-dioxo-2,3-dihydrobenzo[b]thiophen-4-yl)ethyl)amino)-7-methoxy-2-methylquinazolin-6-yl)cyclohexane-1-carbonyl)piperazin-1-yl)methyl)-3-azaspiro[5.5]undecane-3-carbonyl)phenyl)dihydropyrimidine-2,4(1H,3H)-dione]
≤ 15	100 to 1000	COc1cc2nc(C)nc(N[C@H](C)c3cc(N)cc(C(F)(F)F)c3)c2cc1[C@H]1CC[C@H](C(=O)N2CCN(CCOCC3CCN(C(=O)c4ccc(Cl)c(N5CCC(=O)NC5=O)c4)CC3)CC2)CC1 [Example 33, 1-(5-(4-((2-(4-((1R,4R)-4-(4-(((R)-1-(3-amino-5-(trifluoromethyl)phenyl)ethyl)amino)-7-methoxy-2-methylquinazolin-6-yl)cyclohexane-1-carbonyl)piperazin-1-yl)ethoxy)methyl)piperidine-1-carbonyl)-2-chlorophenyl)dihydropyrimidine-2,4(1H,3H)-dione]
≤ 15	100 to 1000	COc1cc2nc(C)nc(N[C@H](C)c3cc(N)cc(C(F)(F)F)c3)c2cc1[C@H]1CC[C@H](C(=O)N2CCN(CC3CCC4(CC3)CCN(C(=O)c3ccc(Cl)c(N5CCC(=O)NC5=O)c3)CC4)CC2)CC1 [Example 2, 1-(5-(9-((4-((1R,4R)-4-(4-(((R)-1-(3-amino-5-(trifluoromethyl)phenyl)ethyl)amino)-7-methoxy-2-methylquinazolin-6-yl)cyclohexane-1-carbonyl)piperazin-1-yl)methyl)-3-azaspiro[5.5]undecane-3-carbonyl)-2-chlorophenyl)dihydropyrimidine-2,4(1H,3H)-dione]
≤ 15	100 to 1000	CNCc1ccccc1-c1csc([C@@H](C)Nc2nc(C)nc3cc(OC)c([C@H]4CC[C@H](C(=O)N5CCN(CC6CCC7(CC6)CCN(C(=O)c6ccc(OC)c(N8CCC(=O)NC8=O)c6)CC7)CC5)CC4)cc23)c1 [Example 73, 1-(2-methoxy-5-(9-((4-((1R,4R)-4-(7-methoxy-2-methyl-4-(((R)-1-(4-(2-((methylamino)methyl)phenyl)thien-2-yl)ethyl)amino)quinazolin-6-yl)cyclohexane-1-carbonyl)piperazin-1-yl)methyl)-3-azaspiro[5.5]undecane-3-carbonyl)phenyl)dihydropyrimidine-2,4(1H,3H)-dione]
≤ 15	100 to 1000	COc1cc2nc(C)nc(N[C@H](C)c3cc(N)cc(C(F)(F)F)c3)c2cc1[C@H]1CC[C@H](C(=O)N2CCC(CCOCC3CCN(C(=O)c4ccc(Cl)c(N5CCC(=O)NC5=O)c4)CC3)CC2)CC1 [Example 19, 1-(5-(4-((2-(1-((1R,4R)-4-(4-(((R)-1-(3-amino-5-(trifluoromethyl)phenyl)ethyl)amino)-7-methoxy-2-methylquinazolin-6-yl)cyclohexane-1-carbonyl)piperidin-4-yl)ethoxy)methyl)piperidine-1-carbonyl)-2-chlorophenyl)dihydropyrimidine-2,4(1H,3H)-dione]
